pIC50: −log10 of the molar value.
Legend:
Format in all cases: biochemical
CDK2/CyclinE1 = CDK2/CyclinE1 (Homo sapiens (Human), UniProt P24941); test: CDK2/CyclinE1 kinase inhibitory activity (Caliper mobility shift); conditions: read-out: CDK2/Cyclin El IC50
CDK1/CyclinB = CDK1/CyclinB (Homo sapiens (Human), UniProt P06493); test: CDK1/CyclinB kinase inhibitory activity (Caliper mobility shift); conditions: read-out: CDK1/Cyclin B1 IC50
CDK9/CyclinT1 = CDK9/CyclinT1 (Homo sapiens (Human), UniProt P50750); test: CDK9/CyclinT1 kinase inhibitory activity (Caliper mobility shift); conditions: read-out: CDK9/Cyclin T1 IC50
Sequence of CDK9/CyclinT1 (P50750 whole entry): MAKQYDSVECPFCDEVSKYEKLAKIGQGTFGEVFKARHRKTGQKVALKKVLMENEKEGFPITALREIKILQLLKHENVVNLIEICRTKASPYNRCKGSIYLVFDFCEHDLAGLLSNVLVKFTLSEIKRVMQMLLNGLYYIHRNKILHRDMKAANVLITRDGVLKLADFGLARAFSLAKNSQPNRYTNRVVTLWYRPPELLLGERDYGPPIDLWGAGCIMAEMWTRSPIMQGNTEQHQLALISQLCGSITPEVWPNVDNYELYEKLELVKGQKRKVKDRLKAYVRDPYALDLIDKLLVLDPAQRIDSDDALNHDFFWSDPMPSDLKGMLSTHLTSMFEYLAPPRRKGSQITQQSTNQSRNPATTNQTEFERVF
Sequence of CDK9/CyclinT1 (O60563 whole entry partner): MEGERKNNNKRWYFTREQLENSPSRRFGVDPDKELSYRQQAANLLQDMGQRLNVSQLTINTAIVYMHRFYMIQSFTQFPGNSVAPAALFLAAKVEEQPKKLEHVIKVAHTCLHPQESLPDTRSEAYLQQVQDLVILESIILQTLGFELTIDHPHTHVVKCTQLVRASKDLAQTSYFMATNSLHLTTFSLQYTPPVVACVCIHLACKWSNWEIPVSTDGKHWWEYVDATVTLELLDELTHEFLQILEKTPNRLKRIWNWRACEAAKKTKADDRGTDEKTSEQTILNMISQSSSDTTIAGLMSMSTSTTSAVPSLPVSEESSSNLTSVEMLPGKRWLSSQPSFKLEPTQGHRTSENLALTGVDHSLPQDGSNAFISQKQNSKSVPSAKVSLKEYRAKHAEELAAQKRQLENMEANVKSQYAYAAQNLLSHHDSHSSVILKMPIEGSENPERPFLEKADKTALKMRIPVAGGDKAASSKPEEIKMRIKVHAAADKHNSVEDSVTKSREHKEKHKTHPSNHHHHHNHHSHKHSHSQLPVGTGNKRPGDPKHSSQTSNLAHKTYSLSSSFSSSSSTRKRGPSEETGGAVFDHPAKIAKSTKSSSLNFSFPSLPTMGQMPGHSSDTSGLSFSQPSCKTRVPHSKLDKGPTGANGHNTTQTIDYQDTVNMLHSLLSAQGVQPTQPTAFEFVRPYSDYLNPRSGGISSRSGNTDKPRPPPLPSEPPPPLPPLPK

Sequence of CDK1/CyclinB (P06493 whole entry): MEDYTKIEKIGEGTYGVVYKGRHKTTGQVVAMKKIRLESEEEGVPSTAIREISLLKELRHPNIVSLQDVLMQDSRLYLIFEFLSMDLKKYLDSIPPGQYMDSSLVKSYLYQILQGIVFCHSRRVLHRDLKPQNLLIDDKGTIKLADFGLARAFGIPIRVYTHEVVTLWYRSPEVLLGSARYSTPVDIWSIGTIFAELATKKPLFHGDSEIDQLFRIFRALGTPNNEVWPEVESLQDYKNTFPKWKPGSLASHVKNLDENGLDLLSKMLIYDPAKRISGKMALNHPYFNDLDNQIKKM
Sequence of CDK1/CyclinB (P14635 whole entry partner): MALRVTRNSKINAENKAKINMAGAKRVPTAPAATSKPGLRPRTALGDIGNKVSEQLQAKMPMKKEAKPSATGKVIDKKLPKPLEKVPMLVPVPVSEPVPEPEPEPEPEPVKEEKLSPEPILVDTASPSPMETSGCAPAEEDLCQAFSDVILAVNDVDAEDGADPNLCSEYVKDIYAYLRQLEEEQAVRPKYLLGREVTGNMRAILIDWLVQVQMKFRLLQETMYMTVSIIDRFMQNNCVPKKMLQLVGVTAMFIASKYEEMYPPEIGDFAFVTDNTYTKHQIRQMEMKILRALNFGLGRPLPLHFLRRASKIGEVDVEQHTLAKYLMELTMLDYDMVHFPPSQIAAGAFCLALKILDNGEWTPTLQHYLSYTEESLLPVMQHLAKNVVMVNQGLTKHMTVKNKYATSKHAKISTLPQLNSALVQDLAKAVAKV

| Structure (SMILES) | pIC50 (CDK2/CyclinE1) | pIC50 (CDK1/CyclinB) | pIC50 (CDK9/CyclinT1) |
| --- | --- | --- | --- |
| CC1(NS(=O)(=O)c2ccc(Nc3ncc(Br)c(O[C@@H]4CCC[C@@H]4O)n3)cc2)COC1 (single isomer, unassigned) [Example 131b, cis-4-((5-bromo-4-((2-hydroxycyclopentyl)oxy)pyrimidin-2-yl)amino)-N-(3-methyloxetan-3-yl)benzenesulfonamide] | > 8.00 | 6.00 to 7.00 | 6.00 to 7.00 |
| CCS(=O)(=O)N1CCC(Nc2ncc(C#N)c(OC3CCCC3(C)O)n2)CC1 (single isomer, unassigned) [Example 36a] | 7.00 to 8.00 | 6.00 to 7.00 | ≤ 6.00 |
| [2H]C([2H])([2H])NS(=O)(=O)c1ccc(Nc2ncc(CC)c(OC3CCOCC3O)n2)cc1 (single isomer, unassigned) [Example 151b] | 7.00 to 8.00 | ≤ 6.00 | ≤ 6.00 |
| NS(=O)(=O)c1ccc(Nc2ncc(Br)c(OC3CCCC3O)n2)cc1 (single isomer, unassigned) [Example 141b] | > 8.00 | 7.00 to 8.00 | 6.00 to 7.00 |
| CC1CCCC1Oc1nc(Nc2ccc(S(N)(=O)=O)cc2)ncc1C#N (stereo not drawn) [Example 11] | > 8.00 | > 8.00 | 7.00 to 8.00 |
| CC(C)NS(=O)(=O)c1ccc(Nc2ncc(C#N)c(OC3CCCCC3O)n2)cc1 (single isomer, unassigned) [Example 30a] | > 8.00 | 7.00 to 8.00 | 6.00 to 7.00 |
| NS(=O)(=O)c1ccc(Nc2ncc(C(F)(F)F)c(OC3CCOCC3O)n2)cc1 (single isomer, unassigned) [Example 114b] | 7.00 to 8.00 | 6.00 to 7.00 | 6.00 to 7.00 |
| CC(C)NS(=O)(=O)c1ccc(Nc2ncc(C#N)c(OC3CCC(O)C3)n2)cc1 (single isomer, unassigned) [Example 29a] | > 8.00 | 6.00 to 7.00 | 6.00 to 7.00 |
| [2H]C([2H])([2H])NS(=O)(=O)c1ccc(Nc2ncc(CC)c(OC3CCOCC3(C)O)n2)cc1 (single isomer, unassigned) [Example 152a] | > 8.00 | > 8.00 | 7.00 to 8.00 |
| NS(=O)(=O)N1CCC(Nc2ncc(C(F)(F)F)c(OC3CCCCCC3O)n2)CC1 (single isomer, unassigned) [Example 122a] | > 8.00 | 6.00 to 7.00 | 6.00 to 7.00 |
| CC1(O)CCCC1Oc1nc(NC2CCN(S(=O)(=O)CF)CC2)ncc1C#N (single isomer, unassigned) [Example 37b] | 7.00 to 8.00 | 6.00 to 7.00 | ≤ 6.00 |
| CC(C)NS(=O)(=O)c1ccc(Nc2ncc(C(F)(F)F)c(OC3CCCC3O)n2)cc1 (single isomer, unassigned) [Example 106b] | > 8.00 | 7.00 to 8.00 | 6.00 to 7.00 |
| CNS(=O)(=O)c1ccc(Nc2ncc(C#N)c(OC3CCCC3(C)O)n2)cc1 (single isomer, unassigned) [Example 34b] | > 8.00 | 6.00 to 7.00 | ≤ 6.00 |
| CC(C)NS(=O)(=O)c1ccc(Nc2ncc(Cl)c(OC3CCCC3O)n2)cc1 (single isomer, unassigned) [Example 138b] | > 8.00 | 7.00 to 8.00 | 6.00 to 7.00 |
| O=S(=O)(NC1CC1)c1ccc(Nc2ncc(C(F)(F)F)c(OC3CCCC3O)n2)cc1 (single isomer, unassigned) [Example 107b] | > 8.00 | 7.00 to 8.00 | 6.00 to 7.00 |
| N#Cc1cnc(Nc2ccc(S(=O)(=O)NC3CC(F)(F)C3)cc2)nc1OC1CCCCC1O (single isomer, unassigned) [Example 32b] | 7.00 to 8.00 | 6.00 to 7.00 | ≤ 6.00 |
| CC(C)NS(=O)(=O)c1ccc(Nc2ncc(C#N)c(OC3CCCC3(C)O)n2)cc1 (single isomer, unassigned) [Example 35b] | > 8.00 | 7.00 to 8.00 | 6.00 to 7.00 |

| Structure (SMILES) | pIC50 (CDK2/CyclinE1) | pIC50 (CDK1/CyclinB) | pIC50 (CDK9/CyclinT1) |
| --- | --- | --- | --- |
| CC1(O)CCCC1Oc1nc(Nc2ccc(S(N)(=O)=O)cc2)ncc1C1CC1 (single isomer, unassigned) [Example 154b] | > 8.00 | 7.00 to 8.00 | 6.00 to 7.00 |
| C[C@@H]1C[C@H](O)CCN1c1nc(Nc2ccc(S(N)(=O)=O)cc2)ncc1C#N [Example 75] | > 8.00 | 7.00 to 8.00 | 7.00 to 8.00 |
| [2H]C([2H])([2H])NS(=O)(=O)c1ccc(Nc2ncc(CC)c(OC3CCCC3O)n2)cc1 (single isomer, unassigned) [Example 149b] | 7.00 to 8.00 | 6.00 to 7.00 | 6.00 to 7.00 |
| N#Cc1cnc(Nc2ccc(S(N)(=O)=O)cc2)nc1OC1CCCC1CO (single isomer, unassigned) [Example 18a] | 7.00 to 8.00 | 6.00 to 7.00 | 6.00 to 7.00 |
| [2H]C([2H])([2H])NS(=O)(=O)c1ccc(Nc2ncc(Cl)c(OC3COCC3(C)O)n2)cc1 (single isomer, unassigned) [Example 140b] | 7.00 to 8.00 | ≤ 6.00 | ≤ 6.00 |
| CNS(=O)(=O)c1ccc(Nc2ncc(Br)c(OC3CCCC3O)n2)cc1 (single isomer, unassigned) [Example 142b] | > 8.00 | 7.00 to 8.00 | 6.00 to 7.00 |
| CC1(O)CCCC1Oc1nc(NC2CCN(S(=O)(=O)CC3CC3)CC2)ncc1C#N (single isomer, unassigned) [Example 38b] | 7.00 to 8.00 | 6.00 to 7.00 | ≤ 6.00 |
| N#Cc1cnc(Nc2ccc(S(N)(=O)=O)cc2)nc1OCC1CCCC1O (single isomer, unassigned) [Example 19b] | > 8.00 | 7.00 to 8.00 | 6.00 to 7.00 |
| Cn1cc(S(=O)(=O)N2CCC(Nc3ncc(Br)c(OC4CCCCC4O)n3)CC2)cn1 (single isomer, unassigned) [Example 144a] | 7.00 to 8.00 | 6.00 to 7.00 | ≤ 6.00 |
| N#Cc1cnc(Nc2ccc(S(N)(=O)=O)cc2)nc1N1CCC[C@H](CO)C1 [Example 78] | > 8.00 | 7.00 to 8.00 | 6.00 to 7.00 |
| [2H]C([2H])([2H])NS(=O)(=O)c1ccc(Nc2ncc(CC)c(OC3CCOCC3(C)O)n2)cc1 (single isomer, unassigned) [Example 152b] | 7.00 to 8.00 | ≤ 6.00 | ≤ 6.00 |
| CS(=O)(=O)N1CCC(Nc2ncc(Br)c(OC3CCCCCC3O)n2)CC1 (single isomer, unassigned) [Example 145a] | 7.00 to 8.00 | 6.00 to 7.00 | ≤ 6.00 |
| N#Cc1cnc(Nc2ccc(S(N)(=O)=O)cc2)nc1OCC1CCCC1O (single isomer, unassigned) [Example 19a] | > 8.00 | 7.00 to 8.00 | 6.00 to 7.00 |
| CC1(O)CCCCC1Oc1nc(Nc2ccc(S(N)(=O)=O)cc2)ncc1C#N (single isomer, unassigned) [Example 24b] | 7.00 to 8.00 | 7.00 to 8.00 | 6.00 to 7.00 |
| NS(=O)(=O)c1ccc(Nc2ncc(C(F)(F)F)c(O[C@H]3[C@@H]4CC[C@@H](C4)[C@H]3O)n2)cc1 (single isomer, unassigned) [Example 113a] | > 8.00 | 6.00 to 7.00 | 6.00 to 7.00 |
| C[C@@H]1C[C@@H](O)CCN1c1nc(Nc2ccc(S(N)(=O)=O)cc2)ncc1C#N [Example 76] | 7.00 to 8.00 | 6.00 to 7.00 | 6.00 to 7.00 |
| [2H]C([2H])([2H])NS(=O)(=O)c1ccc(Nc2ncc(CC)c(OC3COCCC3(C)O)n2)cc1 (single isomer, unassigned) [Example 153b] | 7.00 to 8.00 | ≤ 6.00 | ≤ 6.00 |
